Measurements: patent publication US20130225430A1, “METHODS AND COMPOSITIONS FOR TREATMENT OF TOX-3 AND TFF-1 MEDIATED CANCER PATHOGENESIS” (CEDARS-SINAI MEDICAL CENTER, priority 2012, published 2013)

Columns and labels:
[1] = tested on: TFF1 gene expression in MCF-7 cells; assay: TFF1 expression by quantitative RT-PCR in MCF-7 cells transfected with TOX3 or vector control; details: for Effect on TFF1 expression compared to untreated control cells: MCF7 cells, normal culture conditions (not estrogen depleted); for TOX3 induction of TFF1 expression: resistant or sensitive to the drug: TOX3 transfected MCF7 cells, estrogen depleted medium, 36 hours
Description: Measurement of TFF1 induction by TOX3. […] MCF7 cells were transfected with a TOX3 expression vector or vector control, switched to estrogen depleted-medium after 8 hours in the presence or absence of the indicated drug, and analyzed by quantitative RT-PCR for TFF1 gene expression after an additional 36 hours in culture.

[2] = tested on: ERα binding to ERE I, ERE II, and ERE III; details: reported ER ChIP studies (ref. 46); cited from earlier work

Row | SMILES | Effect on TFF1 expression compared to untreated control cells [1] | TOX3 induction of TFF1 expression: resistant or sensitive to the drug [1] | ER binding at ERE I, II, and III sites upstream of TFF1 and TMPRSS3 [2]
1 | CC/C(=C(\c1ccccc1)c1ccc(OCCN(C)C)cc1)c1ccccc1 [tamoxifen] | decrease | resistant | residual binding
2 | C[C@]12CC[C@@H]3c4ccc(O)cc4C[C@@H](CCCCCCCCC[S+]([O-])CCCC(F)(F)C(F)(F)F)[C@H]3[C@@H]1CC[C@@H]2O (stereo partly drawn) [fulvestrant] | decrease | sensitive | residual binding
